Patent US6355631B1, “Pharmaceutical compositions containing azetidine derivatives, novel azetidine derivatives and their preparation” (Aventis Pharma S.A., priority 2000, dated 2002)

melting point [°C] | Structure (SMILES)
171 | O=[SH](=O)N(Cc1ccccc1)CC1CN(C(c2ccc(Cl)cc2)c2ccc(Cl)cc2)C1 [Example 23, N-Benzyl-N-{1-[bis(4-chlorophenyl)methyl]azetidin-3-yl}methylsulfonamide]
98 | O=[SH](=O)N(Cc1cc(F)cc(F)c1)C1CN(C(c2ccc(F)cc2)c2ccc(F)cc2)C1 [Example 34, N-{1-[Bis(4-fluorophenyl)methyl]azetidin-3-yl}-N-(3,5-difluorophenyl)methylsulfonamide]
